Broadly, the IC50 is the point on the concentration scale where inhibition reaches its midpoint. Read a high IC50 as weaker potency.

The assay relates to Ebolavirus. As to the kind of experiment: Antiviral activity against Ebola virus by cell based luciferase reporter gene assay. Format: functional, Ebola virus sp. As to conditions: Orthoebolavirus. In general terms: In a reporter assay the amount or activity of a reporter protein is the signal.

In turn, `O=C(CC12CC3CC(CC(C3)C1)C2)NCCCC(=O)N1CCN(Cc2ccccc2)CC1` had an IC50 of 22 µM.
`N#Cc1ccccc1CN1CCN(C(=O)CNC(=O)CC23CC4CC(CC(C4)C2)C3)CC1`: the IC50 was found to be 3.9 µM.
The figure for `Cc1cc(O)cc(C)c1CN1CCN(C(=O)CNC(=O)CC23CC4CC(CC(C4)C2)C3)CC1` is 8 µM; for `O=C(CC12CC3CC(CC(C3)C1)C2)NCC(=O)N1CCN(Cc2ccccc2OCc2cccnc2)CC1` it is 2.1 µM.
Then `O=C(CC12CC3CC(CC(C3)C1)C2)NCC(=O)N1CCN(Cc2cc(Br)ccc2O)CC1`, with 0.5 µM; and `CC(C)(C)CC(=O)NCC(=O)N1CCN(Cc2ccccc2)CC1`, with above 40 µM; and `COc1ccc(CN2CCN(C(=O)CNC(=O)CC34CC5CC(CC(C5)C3)C4)CC2)cc1`, with 5.4 µM.
Then `N#Cc1ccc(COc2ccccc2CN2CCN(C(=O)CNC(=O)CC34CC5CC(CC(C5)C3)C4)CC2)cc1`, with 4.4 µM; and `COC(=O)c1cccc(CN2CCN(C(=O)CNC(=O)CC34CC5CC(CC(C5)C3)C4)CC2)c1`, with 14 µM.
On to `O=C(CC12CC3CC(CC(C3)C1)C2)NCC(=O)N1CCN(Cc2ccccc2OCc2cccc(Br)c2)CC1`, for which the IC50 stood at 2.4 µM.
The figure for `CNC(=O)c1ccc(COc2ccccc2CN2CCN(C(=O)CNC(=O)CC34CC5CC(CC(C5)C3)C4)CC2)cc1` is 2.1 µM.
`N#Cc1ccc(CN2CCN(C(=O)CNC(=O)CC34CC5CC(CC(C5)C3)C4)CC2)cc1` returned an IC50 of 8 µM.
Then `COC(=O)c1cccc(COc2ccccc2CN2CCN(C(=O)CNC(=O)CC34CC5CC(CC(C5)C3)C4)CC2)c1`, with 2.4 µM; and `O=C(CC12CC3CC(CC(C3)C1)C2)NCC(=O)N1CCN(Cc2ccccc2OCc2ccccc2)CC1`, with 2 µM; and `O=C(CC12CC3CC(CC(C3)C1)C2)NCC(=O)N1CCN(Cc2ccc(Cl)cc2Cl)CC1`, with 6.6 µM.
Then `CC(OCc1ccccc1)C(NC(=O)CC12CC3CC(CC(C3)C1)C2)C(=O)N1CCN(Cc2ccccc2)CC1` (stereo not given), with 29 µM; and `O=C(CC12CC3CC(CC(C3)C1)C2)NCC(=O)N1CCN(Cc2ccc(O)cc2)CC1`, with 7 µM.
Then `O=C(CC12CC3CC(CC(C3)C1)C2)NCC(=O)N1CCN(Cc2ccccc2Br)CC1`, with 3.4 µM.
`N#CCC(NC(=O)CC12CC3CC(CC(C3)C1)C2)C(=O)N1CCN(Cc2ccccc2)CC1` (stereo not given) gave an IC50 of 22 µM.
Then `O=C(CC12CC3CC(CC(C3)C1)C2)NCC(=O)N1CCN(C(c2ccccc2)c2ccccc2)CC1`, with above 10 µM; and `COc1ccccc1CN1CCN(C(=O)CNC(=O)CC23CC4CC(CC(C4)C2)C3)CC1`, with 2.1 µM; and `O=C(CC12CC3CC(CC(C3)C1)C2)NCC(=O)N1CCN(Cc2ccccc2Cl)CC1`, with 3.2 µM.
On to `O=C(CC1CCCCC1)NCC(=O)N1CCN(Cc2ccccc2)CC1`, for which the IC50 was above 40 µM.
The figure for `O=C(CC12CC3CC(CC(C3)C1)C2)NCC(=O)N1CCN(Cc2ccccc2OCc2ccncc2)CC1` is 0.8 µM; for `CC(NC(=O)CC12CC3CC(CC(C3)C1)C2)C(=O)N1CCN(Cc2ccccc2)CC1` (stereo not given) it is above 40 µM.
The figure for `N#Cc1cccc(CN2CCN(C(=O)CNC(=O)CC34CC5CC(CC(C5)C3)C4)CC2)c1` is 1.2 µM; for `O=C(NCC(=O)N1CCN(Cc2ccccc2)CC1)c1ccccc1` it is 31 µM.
`O=C(CC12CC3CC(CC(C3)C1)C2)NC(CCC(=O)OCc1ccccc1)C(=O)N1CCN(Cc2ccccc2)CC1` (stereo not given) displayed an IC50 of 8.7 µM. This IC50 lies about 3.6-fold lower than the previous one.
Then `O=C(CC12CC3CC(CC(C3)C1)C2)NCC(=O)N1CCN(Cc2cccc(OCc3ccccc3)c2)CC1`, with 4 µM; and `O=C(CC12CC3CC(CC(C3)C1)C2)NCC(=O)N1CCN(C(=O)c2ccccc2)CC1`, with 3 µM.
The figure for `O=C(Cc1ccccc1)NCC(=O)N1CCN(Cc2ccccc2)CC1` is above 40 µM.
The figure for `O=C(CC12CC3CC(CC(C3)C1)C2)NCC(=O)N1CCN(Cc2cccc(C(F)(F)F)c2)CC1` is 2.6 µM; for `O=C(CC12CC3CC(CC(C3)C1)C2)NCC(=O)N1CCN(Cc2ccc(Cl)c(Cl)c2)CC1` it is 0.75 µM.
Turning to `Cc1cccc(CN2CCN(C(=O)CNC(=O)CC34CC5CC(CC(C5)C3)C4)CC2)c1`, half-maximal inhibition (IC50) required 1.1 µM. This IC50 and that of the compound before are within 1.5-fold of each other.
The figure for `O=C(CC12CC3CC(CC(C3)C1)C2)NCC(=O)N1CCN(Cc2ccccc2O)CC1` is 2.9 µM; for `CC(C)C(NC(=O)CC12CC3CC(CC(C3)C1)C2)C(=O)N1CCN(Cc2ccccc2)CC1` (stereo not given) it is above 40 µM; for `O=C(CC12CC3CC(CC(C3)C1)C2)NCC(=O)N1CCN(Cc2ccc(Br)cc2)CC1` it is 3.2 µM.
`COc1cccc(COc2ccccc2CN2CCN(C(=O)CNC(=O)CC34CC5CC(CC(C5)C3)C4)CC2)c1` showed an IC50 of 1.9 µM.
The figure for `CC(=O)Nc1ccc(CN2CCN(C(=O)CNC(=O)CC34CC5CC(CC(C5)C3)C4)CC2)cc1` is 7.5 µM.
Consider `Cc1cccc(COc2ccccc2CN2CCN(C(=O)CNC(=O)CC34CC5CC(CC(C5)C3)C4)CC2)c1`, for which half-maximal inhibition (IC50) required 0.35 µM.
Then `Cc1ccc(CN2CCN(C(=O)CNC(=O)CC34CC5CC(CC(C5)C3)C4)CC2)cc1`, with 1.1 µM; and `O=C(CC12CC3CC(CC(C3)C1)C2)NCC(=O)N1CCN(Cc2ccc(C(=O)O)cc2)CC1`, with above 40 µM; and `O=C(CC12CC3CC(CC(C3)C1)C2)NCC(=O)N1CCN(Cc2ccccc2OCc2ccc(C(=O)O)cc2)CC1`, with 4 µM.
Then `O=C(CC12CC3CC(CC(C3)C1)C2)NCC(=O)N1CCN(Cc2ccccc2C(=O)O)CC1`, with above 40 µM; and `O=C(CC12CC3CC(CC(C3)C1)C2)NCC(=O)N1CCN(Cc2ccccc2OCc2ccc([N+](=O)[O-])cc2)CC1`, with 1.7 µM.
The figure for `O=C(CC12CC3CC(CC(C3)C1)C2)NCC(=O)N1CCN(Cc2cccc3ccccc23)CC1` is 3.4 µM.
`O=C(CC12CC3CC(CC(C3)C1)C2)NCC(=O)N1CCN(Cc2cccc(Br)c2)CC1` yielded an IC50 of 1 µM.
The figure for `CN(C)C(=O)c1ccc(COc2ccccc2CN2CCN(C(=O)CNC(=O)CC34CC5CC(CC(C5)C3)C4)CC2)cc1` is 3.3 µM; for `O=C(CC12CC3CC(CC(C3)C1)C2)NCC(=O)N1CCN(Cc2cccnc2)CC1` it is 6.8 µM; for `O=C(CC12CC3CC(CC(C3)C1)C2)NCC(=O)N1CCN(Cc2ccccc2C(F)(F)F)CC1` it is 1.8 µM.
The figure for `O=C(CC12CC3CC(CC(C3)C1)C2)NCC(=O)N1CCN(Cc2ccccc2OCc2ccccc2[N+](=O)[O-])CC1` is 1.6 µM; for `CC(C)CC(NC(=O)CC12CC3CC(CC(C3)C1)C2)C(=O)N1CCN(Cc2ccccc2)CC1` (stereo not given) it is 29 µM.
The figure for `CN(CC(=O)N1CCN(Cc2ccccc2)CC1)C(=O)CC12CC3CC(CC(C3)C1)C2` is 6.7 µM; for `O=C(CC12CC3CC(CC(C3)C1)C2)NCC(=O)N1CCN(Cc2cccc(C(=O)O)c2)CC1` it is above 40 µM; for `O=C(CC12CC3CC(CC(C3)C1)C2)NCC(=O)N1CCN(Cc2ccc(Cl)cc2)CC1` it is 2.5 µM.
The compound `COc1cccc(CN2CCN(C(=O)CNC(=O)CC34CC5CC(CC(C5)C3)C4)CC2)c1` came in with an IC50 of 2 µM.
With `COC(=O)c1ccccc1CN1CCN(C(=O)CNC(=O)CC23CC4CC(CC(C4)C2)C3)CC1`, inhibition was half-maximal at 8 µM (IC50). This IC50 is about 4-fold higher than that of the compound before.
Then `O=C(CC12CC3CC(CC(C3)C1)C2)NCC(=O)N1CCN(Cc2ccncc2)CC1`, with 14.5 µM; and `O=C(CC12CC3CC(CC(C3)C1)C2)NCC(=O)N1CCN(Cc2ccc3ccccc3c2)CC1`, with 3 µM.
Then `COC(=O)c1ccc(CN2CCN(C(=O)CNC(=O)CC34CC5CC(CC(C5)C3)C4)CC2)cc1`, with 15 µM; and `O=C(Cc1ccc(Cl)cc1)NCC(=O)N1CCN(Cc2ccccc2)CC1`, with 19 µM; and `O=C(CNC(=O)C12CC3CC(CC(C3)C1)C2)N1CCN(Cc2ccccc2)CC1`, with 29 µM.
Then `CC(O)C(NC(=O)CC12CC3CC(CC(C3)C1)C2)C(=O)N1CCN(Cc2ccccc2)CC1` (stereo not given), with above 40 µM.
For the compound `O=C(NCC(=O)N1CCN(Cc2ccccc2)CC1)C1CCCCC1`, half-maximal inhibition (IC50) was put at 27 µM.
Regarding `O=C(CC12CC3CC(CC(C3)C1)C2)NCC(=O)N1CCN(Cc2ccccn2)CC1`, the IC50 was found to be 8.5 µM. This IC50 lies about 3.2-fold lower than the previous one.

The record behind these values is ChEMBL document CHEMBL2321771, “Inhibition of Ebola Virus Infection: Identification of Niemann-Pick C1 as the Target by Optimization of a Chemical Probe” (ACS Med Chem Lett, 2013).
